Results as given in patent publication EP4410284A1, “COMPOUND AND METHOD FOR THE TREATMENT OF ZELLWEGER SPECTRUM DISORDER” (Apteeus, priority 2023, dated 2024).
Where a name gives a salt, the structure may show the parent alone. Read-outs that look alike come from different tables or passages of the source.

How the values were obtained:
PEX405 cells [1] = assay: Catalase import immunofluorescence, high-content screening (% importing cells); format: cell-based, human; settings: PEX405 cells, 3 days
GM16513 cells [2] = format: cell-based; settings: 3 days, PI positive cells (dead cells)
Method: (§1) Images were acquired using the EnSight multimode plate reader (PerkinElmer) and analysis was done using Columbus analysis software (PerkinElmer). […] Then the total number of cells and the % of dead cells was calculated.
(§2) All HDAC inhibitors were tested at 1.3 and 10 µM for 3 days on GM16513 and PEX405 cells.

GM16513 cells [3] = assay: Catalase import immunofluorescence, high-content screening (% importing cells); format: cell-based, human; settings: GM16513 cells, 3 days; for EC50: read-out: EC50; for Emax: read-out: Max Efficacy (% Importing cells)
Method: Primary fibroblasts were seeded at 500-700 cells per well in 384-well plates and grown at 37°C overnight. Cells were treated with test compounds or 0.1% DMSO for 3 days. After 3 days and a wash with PBS, cells were fixed with 4% paraformaldehyde (Electron Microscopy Sciences) in PBS for 20 minutes. After 3 washes with PBS, the cells were permeabilized and blocked with 0.3% Triton X-100, 1% BSA in PBS for 30 minutes at room temperature followed by 3 washes with 1% BSA in PBS. The cells were incubated with a rabbit Catalase polyclonal antibody (#12980 Cell signaling) overnight at 4°C. Following 3 washes with PBS containing 0.1% Tween-20, the cells were incubated for 1 h at room temperature with a conjugated goat anti-rabbit secondary antibody Alexa Fluor 647 (Ab150083-Abcam). The cells were then washed 3 times with PBS and Hoechst 33342 (H3570-ThermoFisher Scientific) + HCS Cellmask Blue (H32720 - ThermoFisher Scientific) staining was performed at 0.1 µg/ml and 0.4 µg/mL respectively for 30 minutes at room temperature. The cells were finally washed 3 times with PBS and fluorescent images were acquired using the INCell Analyzer 6000 imaging platform (GE Healthcare Life Sciences).
Images analysis was done using Columbus analysis software (PerkinElmer). DAPI channel was used to find nuclei (Hoechst 33342) and cytoplasm (HCS CellMask Blue) and border objects were removed. Cy5 channel (AlexaFluor 647) was used to find spots corresponding to peroxisomes which correctly import catalase. […] The number of importing or non-importing cells was calculated. Finally, results were expressed as % of importing cells.
The cytotoxicity was assessed in parallel using a double nucleus staining with Hoechst 33342 and Propidium Iodide (PI).
The EC50 and maximum efficacy of these inhibitors were determined.

PEX405 cells [4] = format: cell-based; settings: 3 days, PI positive cells (dead cells)
Method: as §1, §2

[5] = Homo sapiens, 72 h, dose response with 6 concentrations
[6] = dose response with 6 concentrations

Structure (SMILES) | % Importing cells (PEX405 cells [1]; 1.3 µM) | % Importing cells (PEX405 cells [1]; 10 µM) | % PI+ cells (GM16513 cells [2]; 1.3 µM) | % PI+ cells (GM16513 cells [2]; 10 µM) | % Importing cells (GM16513 cells [3]; 1.3 µM) | % Importing cells (GM16513 cells [3]; 10 µM) | % PI+ cells (PEX405 cells [4]; 1.3 µM) | % PI+ cells (PEX405 cells [4]; 10 µM) | EC50 (GM16513 cells [3]; [5]) | Emax (GM16513 cells [3]; [5]) | Max Efficacy (% Importing cells) (GM16513 cells [3]; [6]) | EC50 (GM16513 cells [3]; [6])
COc1ccc(Cn2ccc3ccc(C(=O)NO)cc32)cc1 [PCI-34051] | 2% | 1% | 1% | 2% | 16% | 7% | 1% | 1% | – | – | – | –
Cc1[nH]c2ccccc2c1CCNCc1ccc(/C=C/C(=O)NO)cc1 [Panobinostat] | 6% | 18% | 30% | 32% | 86% | 44% | 48% | 49% | 3.14 nM | 93% | – | –
Cc1ccc(NC(=O)CCCCCC(=O)Nc2ccccc2N)cc1 [Pimelic Diphenylamide 106] | 4% | 17% | 1% | 3% | 22% | 52% | 1% | 2% | – | – | – | –
CCCCc1nc2cc(/C=C/C(=O)NO)ccc2n1CCN(CC)CC [Pracinostat] | 52% | 25% | 4% | 31% | 92% | 86% | 2% | 41% | 170 nM | 93% | – | –
O=C(CCCCCCC(=O)Nc1cccnc1)NO [Pyroxamide] | 5% | 3% | 1% | 4% | 25% | 11% | 1% | 1% | – | – | – | –
O=C(NO)c1ccc(CNC(=O)c2[nH]c(-c3ccc(O)cc3)cc2-c2ccoc2)cc1.O=C(O)C(F)(F)F [QTX125 (TFA)] | 23% | 0% | 11% | 30% | 83% | 61% | 13% | 48% | – | – | – | –
Cn1cc(CNCC2CCN(c3ncc(C(=O)NO)cn3)CC2)c2ccccc21 [Quisinostat] | 40% | 26% | 17% | 38% | 98% | 86% | 24% | 53% | 30 nM | 95% | – | –
Nc1cc(F)ccc1NC(=O)/C=C/c1cnn(C/C=C/c2ccccc2)c1 [RGFP966] | 1% | 2% | 1% | 3% | 11% | 12% | 1% | 1% | – | – | – | –
COC(=O)c1ccc(OC(=O)CCCCCCC(=O)NO)cc1 [Remetinostat] | 3% | 2% | 1% | 1% | 12% | 14% | 0% | 1% | – | – | – | –
CN(C)Cc1ccc(S(=O)(=O)n2ccc(/C=C/C(=O)NO)c2)cc1 [Resminostat (hydrochloride), Resminostat] | 13% | 19% | 2% | 8% | 60% | 83% | 1% | 4% | 1400 nM | 86% | – | –
CCCCNNC(=O)c1ccc(-c2cccc(F)c2F)cc1 [SR-4370] | 5% | 7% | 1% | 2% | 26% | 30% | 0% | 1% | – | – | – | –
O=C(NO)c1ccc(CN2CCCc3cc(Cl)ccc32)cc1 [SW-100] | 4% | 0% | 1% | 5% | 21% | 6% | 0% | 2% | – | – | – | –
CCOC(=O)NCCCC(=O)NCCc1ccccc1 [Santacruzamate A] | 3% | 3% | 1% | 1% | 24% | 25% | 2% | 1% | – | – | – | –
O=C(CCCCCN1C(=O)c2cccc3cccc(c23)C1=O)NO [Scriptaid] | 15% | 16% | 2% | 8% | 57% | 92% | 1% | 6% | – | – | – | –
O=C1CCc2c(ccc3ccccc23)O1 [Splitomicin] | 5% | 5% | 1% | 1% | 33% | 25% | 0% | 1% | – | – | – | –
O=C(CCCCCCC(=O)NO)NO [Suberoyl bis-hydroxamic acid] | 4% | 10% | 1% | 2% | 13% | 57% | 1% | 1% | – | – | – | –
CC(C)(CNC(=O)c1cccc(-c2noc(C(F)(F)F)n2)c1)c1coc(-c2ccccc2)n1 [TMP195] | 2% | 1% | 1% | 1% | 13% | 8% | 1% | 1% | – | – | – | –
O=C(NCC1(c2nc(-c3ccccc3)cs2)CCOCC1)c1cccc(-c2noc(C(F)(F)F)n2)c1 [TMP269] | 3% | 3% | 1% | 1% | 11% | 7% | 0% | 1% | – | – | – | –
CC(=O)Nc1ccc(C(=O)Nc2ccccc2N)cc1 [Tacedinaline] | 2% | 4% | 1% | 2% | 15% | 18% | 1% | 1% | – | – | – | –
COc1cccc2c1c(O)c(C(=O)N(C)c1ccc(C(F)(F)F)cc1)c(=O)n2C [Tasquinimod] | 7% | 4% | 1% | 1% | 23% | 22% | 0% | 0% | – | – | – | –
O=C(CCCCCCC(=O)Nc1ccc(CN[C@H](C(=O)OC2CCCC2)c2ccccc2)cc1)NO [Tefinostat] | 24% | 24% | 2% | 2% | 33% | 91% | 1% | 23% | – | – | 97% | 4000 nM
